Results from ChEMBL document CHEMBL3120164, “1,2,3,4-Tetrahydrobenzo[h][1,6]naphthyridines as a new family of potent peripheral-to-midgorge-site inhibitors of acetylcholinesterase: synthesis, pharmacological evaluation and mechanistic studies” (Eur J Med Chem, 2014).
Activity calls are given as the source filed them. The calls are words filed in the database; no cut-off is given here.

Molecular target: T1, Acetylcholinesterase (Homo sapiens, UniProt P22303)
T1 sequence (P22303 whole entry): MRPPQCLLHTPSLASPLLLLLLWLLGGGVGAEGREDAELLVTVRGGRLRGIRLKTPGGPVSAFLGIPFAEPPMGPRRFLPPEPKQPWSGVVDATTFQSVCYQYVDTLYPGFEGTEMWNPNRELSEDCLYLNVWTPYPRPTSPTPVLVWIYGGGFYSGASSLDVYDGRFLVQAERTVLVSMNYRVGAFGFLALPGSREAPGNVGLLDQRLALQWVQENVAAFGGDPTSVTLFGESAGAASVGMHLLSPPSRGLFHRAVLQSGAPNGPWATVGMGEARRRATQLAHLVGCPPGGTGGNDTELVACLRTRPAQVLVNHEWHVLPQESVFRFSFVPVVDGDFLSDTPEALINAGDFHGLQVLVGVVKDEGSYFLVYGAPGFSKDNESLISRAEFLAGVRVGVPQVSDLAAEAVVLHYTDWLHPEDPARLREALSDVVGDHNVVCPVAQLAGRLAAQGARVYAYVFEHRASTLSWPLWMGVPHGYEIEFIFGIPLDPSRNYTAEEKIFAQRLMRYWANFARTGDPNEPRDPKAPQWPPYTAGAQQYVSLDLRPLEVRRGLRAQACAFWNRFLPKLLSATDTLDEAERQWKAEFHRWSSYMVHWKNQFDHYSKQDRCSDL
Test: Mixed-type inhibition of human recombinant AChE using acetylthiocholine iodide as substrate by Cornish-Bowden plot analysis
Conditions: not given
With `CCNC(=O)c1ccc2nc(-c3ccc(Cl)cc3)c3c(c2c1)NCCC3` the inhibition was “Active”.
With `CCNC(=O)c1ccc2nc(-c3ccc(Cl)cc3)c3c(c2c1)N(Cc1ccccc1)CCC3` the inhibition was “Active”.

Molecular target: T1, Acetylcholinesterase
Test: Inhibition of human recombinant AChE using acetylthiocholine iodide as substrate preincubated for 20 mins followed by substrate addition by Ellman's method
Conditions: not given
Compound `CCNC(=O)c1ccc2nc(-c3ccc(Cl)cc3)c3c(c2c1)NCCC3` has an IC50 of 0.065 µM.
In the case of `CCOC(=O)c1ccc2nc(-c3ccc(Cl)cc3)c3c(c2c1)N(Cc1ccc(OC)cc1)CCC3`, the IC50 is reported as greater than 25 µM.
In the case of `CCOC(=O)c1ccc2nc(-c3ccc(C(=O)OC)cc3)c3c(c2c1)N(Cc1ccccc1)CCC3`, the IC50 is reported as greater than 25 µM.
`CCOC(=O)c1ccc2nc(-c3ccc(Cl)cc3)c3c(c2c1)N(Cc1ccccc1)C(=O)CC3` gave an IC50 of 4.15 µM.
In the case of `CCNCc1ccc2nc(-c3ccc(Cl)cc3)c3c(c2c1)NCCC3`, the IC50 is reported as 0.556 µM.
In the case of `CCOC(=O)c1ccc2nc(-c3cccnc3)c3c(c2c1)NCCC3`, the IC50 is reported as 22.8 µM.
Work on `CCNCc1ccc2nc(-c3cccnc3)c3c(c2c1)NCCC3` yielded an IC50 of 15.8 µM.
With `CCNC(=O)c1ccc2nc(-c3ccc(Cl)cc3)c3c(c2c1)N(Cc1ccccc1)CCC3` the IC50 was 0.801 µM.

Molecular target: T2, Acetylcholinesterase (Electrophorus electricus, UniProt O42275)
T2 sequence (O42275 whole entry): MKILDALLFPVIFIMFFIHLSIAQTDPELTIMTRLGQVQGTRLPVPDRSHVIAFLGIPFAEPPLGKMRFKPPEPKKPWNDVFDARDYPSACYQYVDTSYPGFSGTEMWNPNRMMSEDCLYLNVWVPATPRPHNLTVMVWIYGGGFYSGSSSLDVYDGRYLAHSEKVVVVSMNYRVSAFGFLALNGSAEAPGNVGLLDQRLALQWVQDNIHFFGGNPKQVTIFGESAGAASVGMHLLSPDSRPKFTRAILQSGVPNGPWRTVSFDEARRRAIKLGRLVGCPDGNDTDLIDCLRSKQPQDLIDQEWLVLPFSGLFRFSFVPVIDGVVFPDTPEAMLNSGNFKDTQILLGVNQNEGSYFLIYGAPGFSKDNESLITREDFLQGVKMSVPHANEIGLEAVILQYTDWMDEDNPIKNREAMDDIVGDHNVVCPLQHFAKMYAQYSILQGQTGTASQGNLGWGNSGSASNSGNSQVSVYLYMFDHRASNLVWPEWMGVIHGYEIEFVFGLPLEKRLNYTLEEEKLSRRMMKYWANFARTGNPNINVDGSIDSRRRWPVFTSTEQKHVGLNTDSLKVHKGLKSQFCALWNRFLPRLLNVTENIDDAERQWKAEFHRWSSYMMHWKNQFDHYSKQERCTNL
Test: not given
Conditions: not given
For `CCNC(=O)c1ccc2nc(-c3ccc(Cl)cc3)c3c(c2c1)NCCC3`, the IC50 was 0.046 µM.
With `CCOC(=O)c1ccc2nc(-c3ccc(Cl)cc3)c3c(c2c1)N(Cc1ccc(OC)cc1)CCC3` the IC50 was greater than 30 µM.
Compound `CCOC(=O)c1ccc2nc(-c3ccc(C(=O)OC)cc3)c3c(c2c1)N(Cc1ccccc1)CCC3` has an IC50 of 6.62 µM.
Work on `CCOC(=O)c1ccc2nc(-c3ccc(Cl)cc3)c3c(c2c1)N(Cc1ccccc1)C(=O)CC3` yielded an IC50 of 5.21 µM.
For `CCNCc1ccc2nc(-c3ccc(Cl)cc3)c3c(c2c1)NCCC3`, the IC50 was 0.532 µM.
`CCOC(=O)c1ccc2nc(-c3cccnc3)c3c(c2c1)NCCC3` gave an IC50 of 0.148 µM.
Work on `CCNCc1ccc2nc(-c3cccnc3)c3c(c2c1)NCCC3` yielded an IC50 of 2.15 µM.
Work on `CCNC(=O)c1ccc2nc(-c3ccc(Cl)cc3)c3c(c2c1)N(Cc1ccccc1)CCC3` yielded an IC50 of 5.48 µM.

Molecular target: T1, Acetylcholinesterase
Test: Ratio of tacrine IC50 to compound IC50 for human recombinant AChE
Conditions: not given
Compound `CCNC(=O)c1ccc2nc(-c3ccc(Cl)cc3)c3c(c2c1)NCCC3` has a Ratio IC50 of 6.

Molecular target: T1, Acetylcholinesterase
Test: Inhibition of human recombinant AChE using acetylthiocholine iodide as substrate at 25 uM preincubated for 20 mins followed by substrate addition by Ellman's method relative to control
Conditions: not given
With `CCOC(=O)c1ccc2nc(-c3ccc(Cl)cc3)c3c(c2c1)N(Cc1ccc(OC)cc1)CCC3` the inhibition was 10.2%.
With `CCOC(=O)c1ccc2nc(-c3ccc(C(=O)OC)cc3)c3c(c2c1)N(Cc1ccccc1)CCC3` the inhibition was 15.7%.

Molecular target: Acetylcholinesterase (Electrophorus electricus) (UniProt O42275)
Sequence (O42275 24-633 limits assumed): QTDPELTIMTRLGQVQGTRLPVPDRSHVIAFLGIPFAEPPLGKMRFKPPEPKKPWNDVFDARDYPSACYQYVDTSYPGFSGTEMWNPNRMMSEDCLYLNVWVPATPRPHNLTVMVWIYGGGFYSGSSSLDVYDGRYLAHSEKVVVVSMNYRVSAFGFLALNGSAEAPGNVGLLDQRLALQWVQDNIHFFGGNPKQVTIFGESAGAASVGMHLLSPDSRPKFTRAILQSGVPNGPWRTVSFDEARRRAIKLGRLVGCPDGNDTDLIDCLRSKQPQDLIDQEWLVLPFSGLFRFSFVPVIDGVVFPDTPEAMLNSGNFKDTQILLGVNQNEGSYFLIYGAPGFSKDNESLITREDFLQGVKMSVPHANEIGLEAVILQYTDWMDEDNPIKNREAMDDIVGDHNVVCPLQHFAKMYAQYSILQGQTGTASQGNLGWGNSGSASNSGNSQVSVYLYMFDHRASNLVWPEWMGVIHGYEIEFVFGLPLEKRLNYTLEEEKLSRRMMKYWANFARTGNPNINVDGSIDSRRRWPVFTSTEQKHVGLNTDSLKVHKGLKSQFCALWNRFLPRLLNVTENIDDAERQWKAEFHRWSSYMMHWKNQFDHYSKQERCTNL
Test: Binding affinity to electric eel AChE peripheral anionic site assessed as concentration required for decreasing initial fluorescence intensity of AChE-propidium complex by spectrofluorometric analysis
Conditions: not given
Work on `CCNC(=O)c1ccc2nc(-c3ccc(Cl)cc3)c3c(c2c1)NCCC3` yielded an Activity of 13 µM.
In the case of `CCNCc1ccc2nc(-c3ccc(Cl)cc3)c3c(c2c1)NCCC3`, the Activity is reported as 23 µM.

Molecular target: Amyloid-beta precursor protein (Homo sapiens) (UniProt P05067)
Sequence (P05067 whole entry): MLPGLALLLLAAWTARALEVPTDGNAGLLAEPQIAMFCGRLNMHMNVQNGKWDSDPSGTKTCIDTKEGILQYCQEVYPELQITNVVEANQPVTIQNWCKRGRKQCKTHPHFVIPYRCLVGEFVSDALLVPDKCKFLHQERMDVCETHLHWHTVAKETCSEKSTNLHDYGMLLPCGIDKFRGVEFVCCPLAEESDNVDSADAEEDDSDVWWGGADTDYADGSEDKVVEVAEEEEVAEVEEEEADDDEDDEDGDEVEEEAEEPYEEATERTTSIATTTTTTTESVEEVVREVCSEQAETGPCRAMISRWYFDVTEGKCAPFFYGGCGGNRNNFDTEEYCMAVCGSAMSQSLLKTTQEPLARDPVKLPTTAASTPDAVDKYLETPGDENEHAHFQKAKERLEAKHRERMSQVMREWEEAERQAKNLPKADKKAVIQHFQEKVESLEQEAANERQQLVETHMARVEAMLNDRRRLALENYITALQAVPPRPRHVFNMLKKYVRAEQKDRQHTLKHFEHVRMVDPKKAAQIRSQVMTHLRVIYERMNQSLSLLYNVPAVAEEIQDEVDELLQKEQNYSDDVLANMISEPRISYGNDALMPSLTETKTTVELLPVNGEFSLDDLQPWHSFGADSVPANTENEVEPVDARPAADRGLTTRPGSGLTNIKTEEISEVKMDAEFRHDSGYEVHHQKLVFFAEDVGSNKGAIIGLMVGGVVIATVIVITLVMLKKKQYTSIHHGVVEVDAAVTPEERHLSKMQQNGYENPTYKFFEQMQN
Test: Inhibition of amyloid beta (1 to 42) aggregation (unknown origin) at 10 uM relative to control
Conditions: not given
Compound `CCNC(=O)c1ccc2nc(-c3ccc(Cl)cc3)c3c(c2c1)NCCC3` has an inhibition of less than 16%.
In the case of `CCOC(=O)c1ccc2nc(-c3ccc(Cl)cc3)c3c(c2c1)N(Cc1ccc(OC)cc1)CCC3`, the inhibition is reported as less than 16%.
Work on `CCOC(=O)c1ccc2nc(-c3ccc(C(=O)OC)cc3)c3c(c2c1)N(Cc1ccccc1)CCC3` yielded an inhibition of less than 16%.
For `CCOC(=O)c1ccc2nc(-c3ccc(Cl)cc3)c3c(c2c1)N(Cc1ccccc1)C(=O)CC3`, the inhibition was less than 16%.
Work on `CCNCc1ccc2nc(-c3ccc(Cl)cc3)c3c(c2c1)NCCC3` yielded an inhibition of less than 16%.
`CCOC(=O)c1ccc2nc(-c3cccnc3)c3c(c2c1)NCCC3` gave an inhibition of less than 16%.
In the case of `CCNCc1ccc2nc(-c3cccnc3)c3c(c2c1)NCCC3`, the inhibition is reported as less than 16%.
`CCNC(=O)c1ccc2nc(-c3ccc(Cl)cc3)c3c(c2c1)N(Cc1ccccc1)CCC3` showed an inhibition of less than 16%.

Molecular target: T3, Cholinesterase (Homo sapiens, UniProt P06276)
T3 sequence (P06276 whole entry): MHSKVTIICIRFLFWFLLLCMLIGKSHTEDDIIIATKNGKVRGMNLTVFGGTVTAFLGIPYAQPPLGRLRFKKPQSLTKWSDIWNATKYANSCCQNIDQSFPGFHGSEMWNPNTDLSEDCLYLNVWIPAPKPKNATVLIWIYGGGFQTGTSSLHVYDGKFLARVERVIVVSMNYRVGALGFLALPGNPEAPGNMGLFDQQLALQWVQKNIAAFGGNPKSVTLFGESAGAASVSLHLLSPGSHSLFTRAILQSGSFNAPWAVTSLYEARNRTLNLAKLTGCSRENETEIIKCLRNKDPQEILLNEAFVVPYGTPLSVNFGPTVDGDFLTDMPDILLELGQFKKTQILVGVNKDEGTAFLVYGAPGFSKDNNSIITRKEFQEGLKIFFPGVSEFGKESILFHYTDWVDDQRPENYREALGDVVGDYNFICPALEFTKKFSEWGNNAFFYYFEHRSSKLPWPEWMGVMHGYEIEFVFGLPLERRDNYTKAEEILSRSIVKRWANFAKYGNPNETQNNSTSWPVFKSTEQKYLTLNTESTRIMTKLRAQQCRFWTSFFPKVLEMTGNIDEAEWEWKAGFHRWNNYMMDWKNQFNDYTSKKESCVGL
Test: Inhibition of human serum BChE using butyrylthiocholine iodide as substrate preincubated for 20 mins followed by substrate addition measured after 5 mins by Ellman's method
Conditions: not given
Compound `CCNC(=O)c1ccc2nc(-c3ccc(Cl)cc3)c3c(c2c1)NCCC3` has an IC50 of 0.92 µM.
`CCNCc1ccc2nc(-c3ccc(Cl)cc3)c3c(c2c1)NCCC3` showed an IC50 of 1.37 µM.
`CCNCc1ccc2nc(-c3cccnc3)c3c(c2c1)NCCC3` gave an IC50 of 2.59 µM.

Molecular target: T2, Acetylcholinesterase
Test: (§1) Displacement of propidium from electric eel AChE peripheral anionic site assessed as decrease in fluorescence intensity by spectrofluorometric analysis
Conditions: not given
Work on `CCNC(=O)c1ccc2nc(-c3ccc(Cl)cc3)c3c(c2c1)NCCC3` yielded a Kd of 1.76 µM.
In the case of `CCNCc1ccc2nc(-c3ccc(Cl)cc3)c3c(c2c1)NCCC3`, the Kd is reported as 2.18 µM.

Molecular target: Acetylcholinesterase (Electrophorus electricus) (UniProt O42275)
Test: as §1
Conditions: not given
In the case of `CCNC(=O)c1ccc2nc(-c3ccc(Cl)cc3)c3c(c2c1)NCCC3`, the inhibition is reported as “Dose-dependent effect”.
For `CCNCc1ccc2nc(-c3ccc(Cl)cc3)c3c(c2c1)NCCC3`, the inhibition was “Dose-dependent effect”.

Molecular target: T1, Acetylcholinesterase
Test: Mixed-type inhibition of human recombinant AChE using acetylthiocholine iodide as substrate assessed as enzyme-substrate-inhibitor complex by Lineweaver-Burk plot analysis
Conditions: not given
With `CCNC(=O)c1ccc2nc(-c3ccc(Cl)cc3)c3c(c2c1)NCCC3` the Ki was 0.073 µM.
With `CCNC(=O)c1ccc2nc(-c3ccc(Cl)cc3)c3c(c2c1)N(Cc1ccccc1)CCC3` the Ki was 2.34 µM.

Molecular target: T3, Cholinesterase
Test: Inhibition of human serum BChE using butyrylthiocholine iodide as substrate at 30 uM preincubated for 20 mins followed by substrate addition measured after 5 mins by Ellman's method relative to control
Conditions: not given
In the case of `CCOC(=O)c1ccc2nc(-c3ccc(Cl)cc3)c3c(c2c1)N(Cc1ccc(OC)cc1)CCC3`, the inhibition is reported as 12.4%.
Work on `CCOC(=O)c1ccc2nc(-c3ccc(C(=O)OC)cc3)c3c(c2c1)N(Cc1ccccc1)CCC3` yielded an inhibition of 6.61%.
In the case of `CCOC(=O)c1ccc2nc(-c3ccc(Cl)cc3)c3c(c2c1)N(Cc1ccccc1)C(=O)CC3`, the inhibition is reported as 8.41%.
In the case of `CCOC(=O)c1ccc2nc(-c3cccnc3)c3c(c2c1)NCCC3`, the inhibition is reported as 27.5%.
`CCNC(=O)c1ccc2nc(-c3ccc(Cl)cc3)c3c(c2c1)N(Cc1ccccc1)CCC3` showed an inhibition of 25.3%.

Tested on: not listed separately
Test: in vitro
Conditions: PAMPA
Description: Permeability of the compound by BBB-PAMPA
For `CCNC(=O)c1ccc2nc(-c3ccc(Cl)cc3)c3c(c2c1)NCCC3`, the Papp was 229 nm/s.
With `CCOC(=O)c1ccc2nc(-c3ccc(Cl)cc3)c3c(c2c1)N(Cc1ccc(OC)cc1)CCC3` the Papp was 260 nm/s.
For `CCOC(=O)c1ccc2nc(-c3ccc(C(=O)OC)cc3)c3c(c2c1)N(Cc1ccccc1)CCC3`, the Papp was 95 nm/s.
With `CCOC(=O)c1ccc2nc(-c3ccc(Cl)cc3)c3c(c2c1)N(Cc1ccccc1)C(=O)CC3` the Papp was 133 nm/s.
For `CCNCc1ccc2nc(-c3ccc(Cl)cc3)c3c(c2c1)NCCC3`, the Papp was 56 nm/s.
`CCOC(=O)c1ccc2nc(-c3cccnc3)c3c(c2c1)NCCC3` gave a Papp of 146 nm/s.
With `CCNCc1ccc2nc(-c3cccnc3)c3c(c2c1)NCCC3` the Papp was 24 nm/s.
For `CCNC(=O)c1ccc2nc(-c3ccc(Cl)cc3)c3c(c2c1)N(Cc1ccccc1)CCC3`, the Papp was 77 nm/s.

Molecular target: Acetylcholinesterase (Electrophorus electricus) (UniProt O42275)
Test: Displacement of propidium from electric eel AChE peripheral anionic site assessed as decrease in fluorescence intensity at 1/1 propidium to compound ratio by spectrofluorometric analysis relative to control
Conditions: concentration not given here
With `CCNC(=O)c1ccc2nc(-c3ccc(Cl)cc3)c3c(c2c1)N(Cc1ccccc1)CCC3` the inhibition was 5%.

Molecular target: T1, Acetylcholinesterase
Test: Mixed-type inhibition of human recombinant AChE using acetylthiocholine iodide as substrate assessed as enzyme-inhibitor complex by Lineweaver-Burk plot analysis
Conditions: not given
For `CCNC(=O)c1ccc2nc(-c3ccc(Cl)cc3)c3c(c2c1)NCCC3`, the Ki was 0.065 µM.
`CCNC(=O)c1ccc2nc(-c3ccc(Cl)cc3)c3c(c2c1)N(Cc1ccccc1)CCC3` showed a Ki of 0.785 µM.

Molecular target: T1, Acetylcholinesterase
Test: Ratio of propidium IC50 to compound IC50 for human recombinant AChE
Conditions: not given
`CCNC(=O)c1ccc2nc(-c3ccc(Cl)cc3)c3c(c2c1)NCCC3` gave a Ratio IC50 of 500.

Molecular target: Acetylcholinesterase (Electrophorus electricus) (UniProt O42275)
Test: Inhibition of electric eel AChE using acetylthiocholine iodide as substrate at 30 uM preincubated for 20 mins followed by substrate addition measured after 5 mins by Ellman's method relative to control
Conditions: not given
`CCOC(=O)c1ccc2nc(-c3ccc(Cl)cc3)c3c(c2c1)N(Cc1ccc(OC)cc1)CCC3` showed an inhibition of 33.7%.
